Laboratory results as given in patent US20260232578A1, “COMPOSITIONS AND METHODS FOR TRANSMUCOSAL ABSORPTION” (Tonix Pharma Limited, priority 2012, published 2026).
Several values for one entry are separate records, joined by “and”; a condition that tells them apart may be missing. Equal entries are not always repeated. Where two headings read alike, the source gives them in different places.

Experiments:
5-HT7 = biological target: T1, 5-HT7 (Homo sapiens, UniProt P34969); assay: Equilibrium receptor binding, recombinant human receptor
T1 construct: expressed in transfected cells

5-HT2A [1] = biological target: T2, 5-HT2A (Homo sapiens, UniProt P28223); assay: G-protein-dependent signal transduction, turnover of inositol triphosphate (IP); type: cell-based; details: read-out: IC50 (nM) (Antagonist)
T2 construct: expressed in transfected cells

[2] = biological target: T3, adrenergic alpha-2A receptor (Homo sapiens, UniProt P08913); assay: Functional antagonism, ligand-induced intracellular calcium mobilization; type: cell-based; details: read-out: IC50, functional antagonist
T3 construct: expressed in transfected cells
Description: (§1) Quantitation was based on peak area ratio of the analytes versus their stable labeled internal standards. A weighted (1/C2), linear regression was performed to determine the concentration of the analytes. All regressions and figures presented in this validation report were generated by MDS Sciex Analyst version 1.4.2 and Thermo Electron Corporation Watson LIMS software, version 7.0.0.01b. […] Select receptors were analyzed in ligand-induced intracellular calcium mobilization.

5-HT5A receptor = biological target: T4, 5-HT5A receptor (Homo sapiens, UniProt P47898); assay: Equilibrium receptor binding, recombinant human receptor
T4 construct: expressed in transfected cells

5-HT2B [3] = biological target: T5, 5-HT2B (Homo sapiens, UniProt P41595); assay: G-protein-dependent signal transduction, turnover of inositol triphosphate (IP); type: cell-based; details: read-out: IC50 (nM) (Antagonist)
T5 construct: expressed in transfected cells

histamine H1 receptor = biological target: T6, histamine H1 receptor (Homo sapiens, UniProt P35367); assay: G-protein-dependent signal transduction, intracellular Ca2+ mobilization; type: cell-based; details: for IC50: H1, Ca2+ mobilization, read-out: IC50, functional antagonist
T6 construct: expressed in transfected cells

D4.4 = biological target: T7, D4.4 (Homo sapiens, UniProt P21917); assay: Equilibrium receptor binding, recombinant human receptor
T7 construct: expressed in transfected cells

adrenergic α1A receptor = biological target: T8, adrenergic α1A receptor (Homo sapiens, UniProt P35348); assay: G-protein-dependent signal transduction, intracellular Ca2+ mobilization; type: cell-based; details: for IC50: α1A, Ca2+ mobilization, read-out: IC50, functional antagonist
T8 construct: expressed in transfected cells
T8 sequence (P35348 1-466): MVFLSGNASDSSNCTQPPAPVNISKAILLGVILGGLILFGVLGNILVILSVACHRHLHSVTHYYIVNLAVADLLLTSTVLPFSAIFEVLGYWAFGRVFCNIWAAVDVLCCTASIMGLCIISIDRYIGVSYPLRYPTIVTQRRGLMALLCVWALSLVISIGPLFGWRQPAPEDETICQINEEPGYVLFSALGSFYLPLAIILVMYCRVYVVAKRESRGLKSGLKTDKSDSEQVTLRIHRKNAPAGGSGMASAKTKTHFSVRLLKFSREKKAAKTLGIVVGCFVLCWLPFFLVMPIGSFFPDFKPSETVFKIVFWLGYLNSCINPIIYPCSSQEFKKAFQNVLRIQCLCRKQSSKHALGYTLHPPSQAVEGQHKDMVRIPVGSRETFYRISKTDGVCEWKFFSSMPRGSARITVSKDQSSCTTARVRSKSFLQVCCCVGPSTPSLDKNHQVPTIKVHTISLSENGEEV

5-HT2C = biological target: T9, 5-HT2C (Homo sapiens, UniProt P28335); assay: G-protein-dependent signal transduction, turnover of inositol triphosphate (IP); type: cell-based; details: read-out: IC50 (nM) (Antagonist)
T9 construct: expressed in transfected cells

muscarinic M1 receptor = biological target: T10, muscarinic M1 receptor (Homo sapiens, UniProt P11229); assay: biochemical
T10 sequence (P11229 1-460): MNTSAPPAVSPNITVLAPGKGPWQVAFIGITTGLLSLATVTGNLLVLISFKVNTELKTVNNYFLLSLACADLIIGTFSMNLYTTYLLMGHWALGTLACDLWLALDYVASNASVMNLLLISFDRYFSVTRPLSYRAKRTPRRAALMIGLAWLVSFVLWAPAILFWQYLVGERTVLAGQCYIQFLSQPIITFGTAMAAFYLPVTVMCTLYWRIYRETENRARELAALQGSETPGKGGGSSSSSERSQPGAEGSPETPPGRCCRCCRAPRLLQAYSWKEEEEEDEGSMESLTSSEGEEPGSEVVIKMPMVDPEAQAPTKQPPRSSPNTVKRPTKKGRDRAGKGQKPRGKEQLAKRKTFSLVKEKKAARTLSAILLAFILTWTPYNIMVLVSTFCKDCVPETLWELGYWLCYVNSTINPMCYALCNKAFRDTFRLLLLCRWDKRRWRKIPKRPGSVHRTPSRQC

5-HT2C receptor = biological target: T11, 5-HT2C receptor (Homo sapiens, UniProt P28335); assay: G-protein-dependent signal transduction, intracellular Ca2+ mobilization; type: cell-based
T11 construct: expressed in transfected cells
T11 sequence (P28335 33-458): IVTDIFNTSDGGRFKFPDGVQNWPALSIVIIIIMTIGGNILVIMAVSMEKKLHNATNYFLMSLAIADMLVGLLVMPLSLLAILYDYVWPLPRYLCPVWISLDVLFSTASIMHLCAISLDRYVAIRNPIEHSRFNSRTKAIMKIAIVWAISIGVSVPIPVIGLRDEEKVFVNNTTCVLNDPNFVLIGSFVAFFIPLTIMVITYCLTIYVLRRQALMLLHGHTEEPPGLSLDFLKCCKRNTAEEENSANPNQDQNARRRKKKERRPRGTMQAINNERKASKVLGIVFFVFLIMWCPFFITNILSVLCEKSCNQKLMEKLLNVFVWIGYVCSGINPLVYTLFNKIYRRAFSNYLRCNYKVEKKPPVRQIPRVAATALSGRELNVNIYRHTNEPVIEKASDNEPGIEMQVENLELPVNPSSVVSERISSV
Description: as §1

5-HT2A [4] = biological target: T2, 5-HT2A; assay: as above; type: cell-based; details: for IC50: Ca2+ mobilization, read-out: IC50, functional antagonist
Description: as §1

5-HT2B [5] = biological target: T5, 5-HT2B; assay: as above; type: cell-based; details: for IC50: Ca2+ mobilization, read-out: IC50, functional antagonist
Description: as §1

[6] = biological target: norepinephrine (NE) transporter (Homo sapiens, UniProt P23975); assay: Equilibrium binding to transporters (FIG. 19); details: Norepinephrine TP (transporter)
D3 = biological target: T12, D3 (Homo sapiens, UniProt P35462); assay: Equilibrium receptor binding, recombinant human receptor
T12 construct: expressed in transfected cells

[7] = 5-HT2c, read-out: IC50, functional antagonist

T2 sequence (P28223 whole entry): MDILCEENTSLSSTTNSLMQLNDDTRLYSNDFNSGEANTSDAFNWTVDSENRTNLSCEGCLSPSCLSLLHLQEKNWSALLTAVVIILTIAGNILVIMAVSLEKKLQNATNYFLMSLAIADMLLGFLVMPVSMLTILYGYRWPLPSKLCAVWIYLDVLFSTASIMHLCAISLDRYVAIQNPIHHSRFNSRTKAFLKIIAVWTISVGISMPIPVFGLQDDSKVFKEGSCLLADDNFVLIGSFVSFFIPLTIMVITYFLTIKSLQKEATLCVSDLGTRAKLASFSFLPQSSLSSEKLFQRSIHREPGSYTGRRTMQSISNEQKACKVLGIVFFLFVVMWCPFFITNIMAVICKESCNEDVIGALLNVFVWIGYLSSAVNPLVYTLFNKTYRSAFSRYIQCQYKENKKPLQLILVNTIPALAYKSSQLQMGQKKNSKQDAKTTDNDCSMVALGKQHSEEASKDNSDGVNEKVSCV
T5 sequence (P41595 whole entry): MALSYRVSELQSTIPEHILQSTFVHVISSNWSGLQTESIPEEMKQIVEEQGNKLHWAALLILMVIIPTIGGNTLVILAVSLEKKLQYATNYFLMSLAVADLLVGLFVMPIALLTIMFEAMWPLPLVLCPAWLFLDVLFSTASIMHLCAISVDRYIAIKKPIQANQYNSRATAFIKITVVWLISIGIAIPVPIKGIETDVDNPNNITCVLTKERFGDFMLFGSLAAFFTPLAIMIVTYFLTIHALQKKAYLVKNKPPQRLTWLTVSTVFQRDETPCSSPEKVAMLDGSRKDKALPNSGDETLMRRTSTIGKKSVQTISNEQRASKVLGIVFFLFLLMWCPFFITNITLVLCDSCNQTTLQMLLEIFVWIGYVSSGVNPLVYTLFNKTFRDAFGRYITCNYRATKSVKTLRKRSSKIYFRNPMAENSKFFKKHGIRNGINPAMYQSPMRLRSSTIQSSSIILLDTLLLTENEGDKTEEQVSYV
T6 sequence (P35367 whole entry): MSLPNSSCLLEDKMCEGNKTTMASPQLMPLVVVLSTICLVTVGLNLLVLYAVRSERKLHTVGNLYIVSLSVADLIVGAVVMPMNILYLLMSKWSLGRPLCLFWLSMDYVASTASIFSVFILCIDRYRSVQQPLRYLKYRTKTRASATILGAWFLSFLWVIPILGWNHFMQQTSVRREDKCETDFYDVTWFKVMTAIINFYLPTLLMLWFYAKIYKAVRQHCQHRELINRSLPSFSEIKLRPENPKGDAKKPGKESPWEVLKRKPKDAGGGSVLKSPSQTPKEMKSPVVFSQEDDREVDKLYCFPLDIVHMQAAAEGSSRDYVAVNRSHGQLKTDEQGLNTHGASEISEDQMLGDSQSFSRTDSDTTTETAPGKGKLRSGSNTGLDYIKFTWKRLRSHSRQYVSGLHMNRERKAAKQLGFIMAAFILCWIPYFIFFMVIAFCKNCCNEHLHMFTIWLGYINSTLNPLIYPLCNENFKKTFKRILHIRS
T7 sequence (P21917 whole entry): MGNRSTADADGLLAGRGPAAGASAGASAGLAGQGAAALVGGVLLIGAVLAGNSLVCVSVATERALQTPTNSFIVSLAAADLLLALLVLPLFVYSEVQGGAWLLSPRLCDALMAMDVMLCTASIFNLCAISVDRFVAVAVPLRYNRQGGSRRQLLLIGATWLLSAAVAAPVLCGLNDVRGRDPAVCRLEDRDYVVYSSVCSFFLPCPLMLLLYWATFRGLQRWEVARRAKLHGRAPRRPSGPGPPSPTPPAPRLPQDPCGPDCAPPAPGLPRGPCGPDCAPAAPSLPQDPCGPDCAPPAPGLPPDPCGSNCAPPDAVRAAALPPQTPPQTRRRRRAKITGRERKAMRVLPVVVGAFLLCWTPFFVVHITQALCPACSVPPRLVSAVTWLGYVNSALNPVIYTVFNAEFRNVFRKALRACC
T4 sequence (P47898 whole entry): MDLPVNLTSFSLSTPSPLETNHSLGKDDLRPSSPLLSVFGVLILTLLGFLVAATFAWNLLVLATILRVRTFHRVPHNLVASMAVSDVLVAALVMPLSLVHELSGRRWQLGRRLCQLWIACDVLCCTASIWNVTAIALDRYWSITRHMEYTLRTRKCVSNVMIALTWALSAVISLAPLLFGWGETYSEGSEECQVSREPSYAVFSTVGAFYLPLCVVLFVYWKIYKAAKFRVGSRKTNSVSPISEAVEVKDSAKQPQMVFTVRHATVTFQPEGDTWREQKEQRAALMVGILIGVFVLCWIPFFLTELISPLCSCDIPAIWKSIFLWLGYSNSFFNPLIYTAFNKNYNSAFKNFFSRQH
T1 sequence (P34969 whole entry): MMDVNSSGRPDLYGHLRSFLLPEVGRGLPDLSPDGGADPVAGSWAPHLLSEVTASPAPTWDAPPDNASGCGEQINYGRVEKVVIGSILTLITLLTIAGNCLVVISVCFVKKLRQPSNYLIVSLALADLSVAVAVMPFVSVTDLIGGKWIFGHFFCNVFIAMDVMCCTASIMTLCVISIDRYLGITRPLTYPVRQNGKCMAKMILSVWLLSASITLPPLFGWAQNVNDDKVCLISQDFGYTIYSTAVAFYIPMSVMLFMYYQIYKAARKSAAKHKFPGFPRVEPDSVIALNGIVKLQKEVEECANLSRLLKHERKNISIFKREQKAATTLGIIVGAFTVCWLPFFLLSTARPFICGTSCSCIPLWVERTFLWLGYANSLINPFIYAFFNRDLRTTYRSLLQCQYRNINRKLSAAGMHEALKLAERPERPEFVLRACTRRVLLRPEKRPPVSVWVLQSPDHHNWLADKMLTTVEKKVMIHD
norepinephrine (NE) transporter, sequence (P23975 whole entry): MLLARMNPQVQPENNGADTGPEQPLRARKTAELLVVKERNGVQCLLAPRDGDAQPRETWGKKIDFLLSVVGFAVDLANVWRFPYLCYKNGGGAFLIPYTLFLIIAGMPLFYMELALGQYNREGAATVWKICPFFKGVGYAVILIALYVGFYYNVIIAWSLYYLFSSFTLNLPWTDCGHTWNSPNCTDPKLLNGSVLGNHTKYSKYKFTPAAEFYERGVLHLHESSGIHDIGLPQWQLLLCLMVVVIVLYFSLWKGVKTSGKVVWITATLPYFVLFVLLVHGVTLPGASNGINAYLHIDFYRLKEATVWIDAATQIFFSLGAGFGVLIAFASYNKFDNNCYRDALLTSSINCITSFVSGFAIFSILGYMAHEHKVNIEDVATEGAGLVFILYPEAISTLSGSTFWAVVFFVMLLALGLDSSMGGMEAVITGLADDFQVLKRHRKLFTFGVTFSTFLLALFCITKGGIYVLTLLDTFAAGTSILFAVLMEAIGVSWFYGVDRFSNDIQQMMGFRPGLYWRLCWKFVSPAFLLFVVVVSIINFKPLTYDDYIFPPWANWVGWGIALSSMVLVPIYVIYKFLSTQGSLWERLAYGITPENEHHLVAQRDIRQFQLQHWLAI
T12 sequence (P35462 whole entry): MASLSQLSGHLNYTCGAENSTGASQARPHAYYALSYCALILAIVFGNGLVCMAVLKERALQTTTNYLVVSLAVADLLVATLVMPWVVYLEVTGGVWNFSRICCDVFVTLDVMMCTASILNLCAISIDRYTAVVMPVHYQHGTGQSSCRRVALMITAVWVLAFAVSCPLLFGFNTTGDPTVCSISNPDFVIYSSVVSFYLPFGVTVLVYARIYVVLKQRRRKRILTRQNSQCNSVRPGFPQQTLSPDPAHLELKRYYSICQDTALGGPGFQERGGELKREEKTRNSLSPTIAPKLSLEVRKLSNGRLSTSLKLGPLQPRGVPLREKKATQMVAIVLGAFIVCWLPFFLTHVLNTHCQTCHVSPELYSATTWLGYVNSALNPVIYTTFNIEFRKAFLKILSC
T3 sequence (P08913 whole entry): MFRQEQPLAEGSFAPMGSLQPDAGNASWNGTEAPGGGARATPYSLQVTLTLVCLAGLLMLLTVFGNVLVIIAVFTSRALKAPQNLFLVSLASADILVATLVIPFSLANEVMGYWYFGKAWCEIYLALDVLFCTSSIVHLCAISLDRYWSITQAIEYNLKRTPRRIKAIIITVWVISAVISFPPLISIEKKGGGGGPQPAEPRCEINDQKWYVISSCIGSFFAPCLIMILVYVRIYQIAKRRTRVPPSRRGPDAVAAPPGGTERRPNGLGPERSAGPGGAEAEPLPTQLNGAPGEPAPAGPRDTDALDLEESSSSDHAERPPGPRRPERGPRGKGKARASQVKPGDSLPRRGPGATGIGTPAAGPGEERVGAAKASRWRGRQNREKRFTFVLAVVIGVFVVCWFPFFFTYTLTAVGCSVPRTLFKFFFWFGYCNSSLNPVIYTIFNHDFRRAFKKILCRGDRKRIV

## CNCCC=C1c2ccccc2C=Cc2ccccc21 [norcyclobenzaprine, 3-(5H-dibenzo[a,d]cyclohepten-5-ylidene)-N-methyl-1-propanamine]
5-HT7
  Ki: 140 nM
5-HT2A [1]
  IC50: 450 nM
[2]
  IC50: 6400 nM
5-HT5A receptor
  Ki: 1600 nM
5-HT2B [3]
  IC50: 1400 nM
Histamine H1 receptor; H1
  Four parameter Hill slope (or fit slope) ratio; Ca2+ signaling: 0.79
Histamine H1 receptor
  IC50: 16 nM
D4.4
  Ki: 250 nM
Adrenergic α1A receptor
  IC50: 16 nM
Adrenergic α1A receptor; α-1A
  Four parameter Hill slope (or fit slope) ratio; Ca2+ signaling: 2.27
5-HT2C
  IC50: 2000 nM
Muscarinic M1 receptor
  Ki: 30 nM
5-HT2C receptor; 5-HT2C
  Four parameter Hill slope (or fit slope) ratio; Ca2+ signaling: 0.94
5-HT2C receptor; [7]
  IC50: 1220 nM
5-HT2A [4]
  Four parameter Hill slope (or fit slope) ratio; Ca2+ signaling: 1.27
  IC50: 92 nM and 140 nM
5-HT2B [5]
  Four parameter Hill slope (or fit slope) ratio; Ca2+ signaling: 1.54
  IC50: 580 nM
[6]
  Ki: 2.6 nM
D3
  Ki: 98 nM

## CN(C)CCC=C1c2ccccc2C=Cc2ccccc21 [cyclobenzaprine, 3-(5H-dibenzo[a,d]cyclohepten-5-ylidene)-N,N-dimethyl-1-propanamine]
5-HT7
  Ki: 67 nM
5-HT2A [1]
  IC50: 210 nM
[2]
  IC50: 4300 nM
5-HT5A receptor
  Ki: 730 nM
5-HT2B [3]
  IC50: 760 nM
Histamine H1 receptor
  IC50: 5.2 nM
D4.4
  Ki: 180 nM
Adrenergic α1A receptor
  IC50: 4.9 nM
5-HT2C
  IC50: 770 nM
Muscarinic M1 receptor
  Ki: 7.9 nM
5-HT2C receptor; 5-HT2C, read-out: IC50 (nM) (Antagonist)
  IC50: 444 nM
5-HT2C receptor; [7]
  IC50: 440 nM
5-HT2A [4]
  IC50: 230 nM
5-HT2B [5]
  IC50: 100 nM
[6]
  Ki: 35 nM
D3
  Ki: 34 nM
